# Measured values reported in US20160030406A1, “CORRECTORS ACTING THROUGH MSD1 OF CFTR PROTEIN” (VERTEX PHARMACEUTICALS INCORPORATED, priority 2013, published 2016).
# Tests used:
# [1] = molecular target: T1, CFTR fragments (CFTR^370, CFTR^373, CFTR^375, CFTR^380, CFTR^430, CFTR^530, CFTR^653) (Homo sapiens, UniProt P13569); test: CFTR fragment steady-state accumulation by immunoblot in HEK293 cells; assay type: cell-based; conditions: HEK293, 4 hours bortezomib
# T1 construct: expressed in transfected cells; host or cells: HEK293, transient transfection
# Procedure: Steady-state levels of CFTR and its mutants are determined by western blot analysis. HEK293 cells are transiently transfected with the indicated plasmids (Grove, et al., 2011, Mol Biol Cell, 22: 301-14). The transfected cells are allowed to recover for approximately 18 hrs before addition of DMEM and then supplemented with lumacaftor or DMSO (control). The cells are incubated with the correctors for 24 hrs before isolating the cells for western blot analysis. The harvested cells are diluted with 2×SDS sample buffer (100 mM Tris-HCl (pH 6.8)/4% SDS/0.05% Bromophenol Blue/20% glycerol), sonicated, and heated at 37° C. prior to resolving the proteins on SDS-PAGE gels. The proteins are transferred to nitrocellulose membranes and the membranes are probed with the designated antibodies. β-tubulin is used to indicate loading controls.
# To localize the region in CFTR on which lumacaftor acts to correct ΔF508-CFTR misfolding, immunoblot and pulse-chase studies are used to monitor the impact of the drug on the accumulation of a set of CFTR and ΔF508-CFTR fragments that expose surfaces present on CFTR folding intermediates.
# A set of CFTR fragments with domain boundaries that permitted them to accumulate in unstable or stable states are expressed in HEK293 cells, and the effect of 5 μM lumacaftor on the accumulation of different fragments is determined. As a point of reference, the impact of the proteasome inhibitor bortezomib on CFTR fragment accumulation is also measured.
# Cells are treated for 4 hours with bortezomib or 18 hours at 37° C. with lumacaftor. The amount of CFTR fragment accumulation is determined by immunoblot.
# To evaluate whether the 362-380 helix is critical for MSD1 folding, the accumulation and sensitivity to lumacaftor of CFTR^373, CFTR^375, and CFTR^380 is analyzed. CFTR^373 accumulation is similar to that of CFTR^370 and insensitive to lumacaftor. CFTR^375 accumulation is similar to CFTR^370, but its amounts are increased around 6-fold by lumacaftor. […] Maximal accumulation of CFTR^380 occurs at 5 μM lumacaftor.
# ΔF508-CFTR = molecular target: T2, ΔF508-CFTR (Homo sapiens, UniProt P13569, DEL508-508); conditions: bronchial epithelial cells from CF subjects; cited from earlier work
# T2 construct: endogenous in cells; host or cells: primary human bronchial epithelial cells from CF subjects homozygous for ΔF508
# T2 sequence (P13569 with tags, fused parts or gaps DEL508-508): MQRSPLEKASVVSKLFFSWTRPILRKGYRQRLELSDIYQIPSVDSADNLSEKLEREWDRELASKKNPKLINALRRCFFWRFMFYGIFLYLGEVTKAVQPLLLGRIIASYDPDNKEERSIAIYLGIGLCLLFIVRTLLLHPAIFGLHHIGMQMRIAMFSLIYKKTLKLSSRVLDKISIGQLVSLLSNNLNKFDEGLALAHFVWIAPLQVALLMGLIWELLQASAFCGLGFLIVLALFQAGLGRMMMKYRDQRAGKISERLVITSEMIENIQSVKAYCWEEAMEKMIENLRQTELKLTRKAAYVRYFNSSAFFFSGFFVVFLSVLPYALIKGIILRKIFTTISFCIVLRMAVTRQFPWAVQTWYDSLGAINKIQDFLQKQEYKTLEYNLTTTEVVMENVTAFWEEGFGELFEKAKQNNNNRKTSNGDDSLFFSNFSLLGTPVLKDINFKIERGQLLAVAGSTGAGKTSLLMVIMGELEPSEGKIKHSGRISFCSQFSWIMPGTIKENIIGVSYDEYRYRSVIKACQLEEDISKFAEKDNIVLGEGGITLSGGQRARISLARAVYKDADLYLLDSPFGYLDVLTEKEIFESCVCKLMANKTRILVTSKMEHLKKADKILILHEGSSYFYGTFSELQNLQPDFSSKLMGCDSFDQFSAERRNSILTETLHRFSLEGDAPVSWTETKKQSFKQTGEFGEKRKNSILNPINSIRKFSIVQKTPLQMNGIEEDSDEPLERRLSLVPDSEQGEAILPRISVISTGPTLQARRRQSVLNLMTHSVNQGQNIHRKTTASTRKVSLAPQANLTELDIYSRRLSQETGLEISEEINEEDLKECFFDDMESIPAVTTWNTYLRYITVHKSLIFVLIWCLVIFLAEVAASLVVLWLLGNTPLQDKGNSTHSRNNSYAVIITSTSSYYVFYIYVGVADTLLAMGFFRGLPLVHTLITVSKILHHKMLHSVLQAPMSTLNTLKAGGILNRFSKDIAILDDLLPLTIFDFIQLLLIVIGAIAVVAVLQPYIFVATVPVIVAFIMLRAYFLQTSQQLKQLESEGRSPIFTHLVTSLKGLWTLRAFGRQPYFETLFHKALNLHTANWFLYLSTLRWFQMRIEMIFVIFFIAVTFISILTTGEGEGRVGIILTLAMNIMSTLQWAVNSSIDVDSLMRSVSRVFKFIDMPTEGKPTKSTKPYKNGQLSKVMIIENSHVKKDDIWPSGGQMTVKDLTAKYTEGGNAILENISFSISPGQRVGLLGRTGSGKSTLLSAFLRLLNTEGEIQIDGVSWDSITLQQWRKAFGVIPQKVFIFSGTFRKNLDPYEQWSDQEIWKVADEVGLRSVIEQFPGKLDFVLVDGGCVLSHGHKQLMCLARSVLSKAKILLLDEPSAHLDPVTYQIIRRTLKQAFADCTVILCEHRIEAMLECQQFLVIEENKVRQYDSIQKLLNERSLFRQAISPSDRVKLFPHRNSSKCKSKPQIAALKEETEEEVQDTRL
"accumulation of CFTR^430, sensitivity to proteasome inhibition [1]","accumulation of CFTR^653, sensitivity to proteasome inhibition [1]",increase in accumulation of CFTR^370 [1],increase in accumulation of CFTR^530 [1],SMILES,ΔF508-CFTR function (ΔF508-CFTR)
relatively insensitive,relatively insensitive,10 fold,10 fold,CC(C)C[C@H](NC(=O)[C@H](Cc1ccccc1)NC(=O)c1cnccn1)B(O)O [bortezomib],
,,,,COc1ccc(Cl)cc1Nc1nc(-c2sc(NC(=O)c3ccccc3)nc2C)cs1 [Corr-4a],partially restored
